Results on 3 molecules are retold here after patent publication US6034211A, “β-sheet nucleating peptidomimetics” (priority 1996, dated 2000).

Data set [1] can be described thus: Amide proton/deuterium exchange studies by NMR. The following applies: for rates of amide proton/deuterium exchange of the Leu and Val residues flanking 1 relative to the remaining residues: peptide A 3.0-3.3 mM, pH 3.4-3.6, peptide D 2.5-2.9 mM, pH 4.1-5.1. The class given is physicochemical. How it is done: Information concerning the hydrogen-bonding network within a peptide containing residue 1A in aqueous solution was obtained from amide exchange studies of peptide A (3.0-3.3 mM, pH 3.4-3.6) and peptide D (2.5-2.9 mM, pH 4.1-5.1) where peptides A and D appear to be unstructured by far-UV CD.
Amide exchange studies at pH 3.2 were used to examine the hydrogen-bonding properties of peptide G which is expected to be partially folded on the basis of the studies discussed above.

The nature of data set [2]: Analytical equilibrium ultracentrifugation (solution molecular weight, quaternary structure).
Data set [3] can be described thus: Far-UV circular dichroism studies of peptide folding (random coil vs β-sheet). The class given is physicochemical. Here is the method: Heptapeptide A has an -amino acid sequence homologous to a 4-(2-aminoethyl)-6-dibenzofuranpropionic acid-based heptapeptide studied previously, allowing comparsion of the efficacy of the biphenyl- and dibenzofuran-based amino acids as nucleators in a momologous α-aminoacid sequence. Peptide B, having a Phe in place of Leu-3, was prepared to test the feasibility of using an aromatic-aromatic interaction to stabilize the hydrophobic cluster and facilitate β-sheet folding. In peptide C, ornithine-2 was replaced with Glu to probe the effect of an addition long-range residue-residue electrostatic interaction (salt bridge) on β-sheet stability in the context of a heptapeptide.
The high charge density on peptides D and E should prevent the favorable strand-strand interactions required for sheet formation at low pH. The removal of two or more of the charges on the Lys ε-ammonium groups effected by increasing the pH is expected to facilitate intramolecular folding followed by self-assembly. A leucine was employed as one of the flanking residues in these peptides instead of valine because the increased side chain flexibility should maximize packing interactions required for hydrophobic cluster formation. […] Peptide E was identical to peptide D except that it incorporated residue 2A in place of residue 1A. […] Peptide F was prepared to probe the importance of hydrophobic cluster formation in β-sheet folding mediated by residue 1A. The flanking hydrophobic residues in peptide D were replaced with hydrophilic lysine residues in peptide F while maintaining a highly momologous amino acid composition and an amphiphilic periodicity of 2A.

Starred links: 1 amine or outer side, 2 acyl side, 3 side chain; linkers in the order of their positions; H or OH if unused. Non-standard residues stand in square brackets, D forms with d. Residues, ends and D or L forms follow the SMILES beside them. X1 = O=C(CCc1ccccc1-c1cccc(CCN[*:1])c1)[*:2]; Orn = NCCC[C@H](N)C(=O)O

“Lys Val N--Me--Leu Val Lys Leu 1A Val Lys Val N--Me--Leu Val Lys [Peptide G]”: the “rates of amide proton exchange of Leu-6, Val-8, Val-4 and Val-10 relative to the remaining residues” value in data set [1] (pH 3.2) was “significantly slower”. Besides, the “observed solution molecular weight (expected monomer 1644)” value in data set [2] (0.11 mM, pH 6.8) amounted to 1600±80. For the same molecule, in data set [2] (within the concentration and pH ranges studied), the “association state by analytical equilibrium ultracentrifugation” value was “monomeric”. The “association state by concentration dependent far-UV CD” value in data set [3] (0.015-0.4 mM, pH 7, mean residue ellipticity at 225 nm constant) is given as “monomeric”. Further, in data set [3] (25° C.), the “pH dependence of far-UV CD spectra” value is listed as “little dependence on pH”; the “structure by far-UV CD” value is “both random coil and β-sheet structure”. In data set [3] (upon heating), the aggregation upon heating entry is reported as “does not aggregate” and the “change of structure upon heating (far-UV CD)” value is listed as “increase in β-sheet structure”.
`CC(C)C[C@H](NC(=O)[C@H](CCCN)NC(=O)[C@@H](NC(=O)CCc1ccccc1-c1cccc(CCNC(=O)[C@H](CC(C)C)NC(=O)[C@H](CCCN)NC(=O)[C@@H](N)C(C)C)c1)C(C)C)C(N)=O` [A, Val Orn Leu 1A Val Orn Leu] (H-V[Orn]L[X1]V[Orn]L-NH2): the “rates of amide proton/deuterium exchange of the Leu and Val residues flanking 1 relative to the remaining residues” value in data set [1] is “at least an order of magnitude slower”.
As to `CC(C)C[C@H](NC(=O)[C@H](CCCCN)NC(=O)[C@@H](NC(=O)[C@H](CCCCN)NC(=O)[C@@H](NC(=O)[C@@H](N)CCCCN)C(C)C)C(C)C)C(=O)NCCc1cccc(-c2ccccc2CCC(=O)N[C@H](C(=O)N[C@@H](CCCCN)C(=O)N[C@H](C(=O)N[C@@H](CCCCN)C(=O)N[C@H](C(=O)N[C@@H](CCCCN)C(N)=O)C(C)C)C(C)C)C(C)C)c1` [Peptide D, Lys Val Lys Val Lys Leu 1A Val Lys Val Lys Val Lys] (H-KVKVKL[X1]VKVKVK-NH2), the “rates of amide proton/deuterium exchange of the Leu and Val residues flanking 1 relative to the remaining residues” value in data set [1] is recorded as “at least an order of magnitude slower”.
